Measurements from patent US20150265703A1, “COMBINATION THERAPY OF AN AFUCOSYLATED CD20 ANTIBODY WITH A mTOR INHIBITOR” (ROCHE GLYCART AG, priority 2010, published 2015).

Test system: SU-DHL-4 human lymphoma cells
Assay: Tumor growth inhibition study in vivo, SC SU-DHL-4 tumors in SCID beige mice
Conditions: for SU-DHL-4 tumors growth in comparison with tumors from vehicle-treated animals: 3 mg/kg, single agent; for T/C (%) values of the treatment groups compared to the vehicle group: day 46 after tumor cell injection, GA101 3 mg/kg IV Q7Dx4, Torisel 3 mg/kg IP Q3Dx10, SC SU-DHL-4 tumors, SCID beige mice
Method: Test Agents Type II anti-CD20 antibody B-HH6-B-KV1 GE (=humanized B-Ly1, glycoengineered B-HH6-B-KV1=GA101; see WO 2005/044859 and WO 2007/031875) was provided from GlycArt, Schlieren, Switzerland. Antibody buffer included histidine, trehalose and polysorbate 20. Antibody solution was diluted appropriately in PBS from stock for prior injections. Temsirolimus (Torisel®, 25 mg/ml, Wyeth Pharmaceuticals) was supplied by Oncodesign and stored at +4° C. protected from light according to the supplier's instructions.
SU-DHL-4 human lymphoma cells (DSMZ NO.: ACC 495) were grown as a suspension at 37° C. in a humidified atmosphere (5% CO2, 95% air). The culture medium was RPMI 1640 containing 2 mM L-glutamine (Ref BE12-702F, Batch N° 8MB0056, Lonza, Verviers, Belgium) and supplemented with 10% fetal bovine serum (Ref 3302, Batch N^o P282005, Lonza). The cells were counted in a hemocytometer and their viability was assessed by 0.25% trypan blue exclusion.
Female CB17 SCID beige mice, 5-6 week-old and weighing 16-20 g, were obtained from Charles River (L'Arbresle, France).
Ten millions (10^7) SU-DHL-4 tumor cells in 100 μl of PBS with matrigel (50:50, BD Biosciences, France) were subcutaneously (SC) injected into the right flank of 52 female SCID beige mice.
All study data, including animal body weight measurements, tumor volume, clinical and mortality records, and drug treatment management were managed using Vivo Manager® software (Biosystemes, Dijon, France).
Isoflurane Forene (Minerve, Bondoufle, France) was used to anaesthetize the animals before SC inoculation of tumor cells, IV injection of compounds and sacrifice. Mortality, clinical signs and behaviour were recorded every day. Animal body weights and tumor volumes were monitored and recorded twice a week.
When the tumors reached a mean volume of 173±95 mm^3, 40 out of 52 tumor bearing […] mice were distributed in 4 groups of 10 mice. The treatment schedule was chosen as following: • Mice from group 1 received once weekly IV bolus injection of vehicle for 4 consecutive weeks (Q7Dx4). • Mice from group 2 received once weekly IV bolus injection of anti-CD20 antibody GA101 (B-HH6-B-KV1 GE) at 3 mg/kg/inj for 4 consecutive weeks (Q7Dx4). • Mice from group 3 received once daily IP injection of Torisel® at 3 mg/kg/inj with a 3-day interval between each dosing and a total of 10 injections (Q3Dx10). • Mice from group 4 received once weekly IV bolus injection of anti-CD20 antibody GA101 (B-HH6-B-KV1 GE) at 3 mg/kg/inj for 4 consecutive weeks (Q7Dx4) in combination with once daily IP injection of Torisel® at 3 mg/kg/inj with a 3-day interval between each dosing and a total of 10 injections (Q3Dx10)].
The antitumor efficacy of anti-CD20 antibody GA101 (B-HH6-B-KV1 GE) alone and in combination with Torisel® was examined. […]

Compound | SU-DHL-4 tumors growth in comparison with tumors from vehicle-treated animals | T/C (%) values of the treatment groups compared to the vehicle group
CO[C@H]1C[C@@H]2CC[C@@H](C)[C@@](O)(O2)C(=O)C(=O)N2CCCC[C@H]2C(=O)O[C@H]([C@H](C)C[C@@H]2CC[C@@H](OC(=O)C(C)(CO)CO)[C@H](OC)C2)CC(=O)[C@H](C)/C=C(\C)[C@@H](O)[C@@H](OC)C(=O)[C@H](C)C[C@H](C)/C=C/C=C/C=C/1C [Torisel, Temsirolimus] | partially delayed | 60%
GA101: Type II anti-CD20 antibody, humanized B-Ly1, glycoengineered B-HH6-B-KV1 (VH SEQ ID NO:7, VL SEQ ID NO:20), afucosylated IgG1 | partially delayed | 51%
